Measured values as given in publication PMC12796447, “Cran1, member of a new class of OLD family ATPases, functions in cell cycle progression in an archaeon” (EMBO Reports, 2025).

Target: T1, Cran1 (Cell cycle-related ATPase and nickase 1) (Saccharolobus islandicus, UniProt F0NG35, E246A)
T1 construct: gene SiRe_0086; full-length, C-terminal His-tag; expressed in Sa. islandicus (ATPase assay) or E. coli BL21(DE3)-RIL; monomer, 55 kDa by gel filtration
Test: malachite green phosphate release assay
Assay type: biochemical
Conditions: 1 mM ATP, 0.2 uM protein, 5 mM MgCl2, 25 mM Tris-HCl pH 7.4, 100 mM NaCl; 70 C

T1 sequence (F0NG35 entry or part of it E246A): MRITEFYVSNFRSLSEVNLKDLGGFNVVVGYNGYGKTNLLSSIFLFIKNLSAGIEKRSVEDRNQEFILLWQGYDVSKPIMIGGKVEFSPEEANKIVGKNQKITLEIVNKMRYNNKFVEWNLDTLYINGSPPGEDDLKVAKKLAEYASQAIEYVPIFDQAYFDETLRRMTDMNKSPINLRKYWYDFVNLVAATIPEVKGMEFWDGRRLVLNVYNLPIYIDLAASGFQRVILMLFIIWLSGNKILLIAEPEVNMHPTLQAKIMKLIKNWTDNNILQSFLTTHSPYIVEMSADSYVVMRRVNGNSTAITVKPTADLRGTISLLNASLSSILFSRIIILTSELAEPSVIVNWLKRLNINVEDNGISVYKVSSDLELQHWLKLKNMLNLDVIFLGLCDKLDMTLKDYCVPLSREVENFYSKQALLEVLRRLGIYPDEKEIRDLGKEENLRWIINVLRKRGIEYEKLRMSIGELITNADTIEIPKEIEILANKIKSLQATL

How did the “malachite green phosphate release assay” value turn out when `Nc1ncnc2c1ncn2[C@@H]1O[C@H](COP(=O)(O)OP(=O)(O)OP(=O)(O)O)[C@@H](O)[C@H]1O` [ATP] was run?
The value was “substitution of either of the two residues with alanine had no effect both in vitro”.
